# Assay results from patent publication US8097241B2, “Formulation and method for treating animal waste” (priority 2007, dated 2012).
# Legend:
# [1] = Rate of malodor disappearance from dog waste stirred at 40° C.; conditions: oxidizing agent added to the formulation or as aqueous solution
# Procedure: 1. The specific amount of feces was weighed (about 4.0 g; accuracy of 1 mg) out and transferred to the 200 mL beaker.
# 2. 100.0 g of aqueous solution containing either no additives or the selected ones weighed at the same balance (accuracy of 1 mg) was added to the beaker.
# 3. The sample was located on a hot plate and stirred magnetically at 40° C. in the fume hood.
# 4. The samples were checked for the released smell every few minutes.
# 50.0 mL of deionized water containing selected quantities of detergent, pH affecting agent and protease (same concentration as in the formulation divided by 50 since this is the planned dilution with water), pH affecting agent and protease • a. no additives • b. Cola Lipid (0.20 g); protease (Alcalase 3.0T, 0.008 g), sodium perborate tetrahydrate (0.012 g), citric acid (to adjust pH to about 3.0), • c. Cola Lipid (0.20 g); protease (Alcalase 3.0T, 0.008 g), sodium perborate tetrahydrate (0.012 g), sodium hydrogen carbonate (to adjust pH to about 10.0), • d. Cola Lipid (0.20 g); protease (Alcalase 3.0T, 0.008 g), 5% hydrogen peroxide (0.100 g), citric acid (to adjust pH to about 3.0) was added to 3.00 g of the dog waste. The mixtures were located in the fume hood, heated on the hot plate to 40° C. and stirred magnetically. […] The malodor of the sample “a” disappeared after about 30 minutes.
# [2] = Rate of disintegration of animal waste: time to a uniformly distributed suspension under magnetic stirring; set-up: species or system dog; conditions: about 5 g waste, 90.0 g water, stirring about 90 rpm; water alone 16 minutes
# Procedure: 1. The selected amount of feces was weighed out with the accuracy of 10 mg. All the samples had the same mass within 200 milligrams.
# 2. […]
# 3. The mixture was mixed at specific rate (about 90 rpm) using a magnetic bar inside the solution and a magnetic stirrer. The amount of time necessary to produce a uniformly distributed suspension was measured.
# animal waste bio-burden = test: Lowering of animal waste bio-burden: dog waste homogenised with additives, serially diluted, plated on agar, CFUs counted; format: cell-based
# Procedure: 1. A specific amount of a dog waste weighed with the accuracy of 1 mg (usually between 3 and 7 g) was transferred into the sterilized homogenizer. In a set of experiments performed on a given day the mass of all the samples were the same within 20.0 mg.
# 2. All the required additives were weighed out using the same balance and introduced into a specific amount of deionized, freshly boiled (but cooled to room temperature) water (usually between 50.0 g and 100.0 g) in the sterilized Erlenmeyer flask.
# 3. Next, the aqueous solution of additives was transformed into the homogenizer.
# 4. The mixture was mixed at low (18,000 RPM) for a specific amount of time (usually 30 seconds).
# 5. The resulting suspension was transferred to the sterilized Erlenmeyer flask and gradually diluted 10 times in several subsequent dilution steps. Initially, 5.0 mL of the non-diluted solution was added to 45.0 mL of deionized, freshly boiled water. The Eppendorf pipettes were used for further dilutions and in each case […] of the previous sample after vortex was added to 0.900 mL of deionized, freshly boiled water in a sterile vial. Usually, 6 or 7 dilutions were performed. In every set of experiments one sample consisted of the feces and water only. All the results were measured against this sample.
# 6. […]
# 8. Next, each sample was counted to determine the number of CFUs (colony forming units).
Compound,"reduction of malodor of feces, in words [1]",Time until feces disintegration [2] [min],other results
"O=C(OO)c1cccc(Cl)c1 [metachloroperbenzoic acid (MCPBA), metachloroperbenzoic acid]",destroy the malodor very effectively,,
"CCCCCCCCCCCCOS(=O)(=O)[O-].[Na+] [Sodium dodecyl sulfate, sodium dodecyl sulfate]",,1,
sodium perborate,destroy the malodor very effectively,,"reduction of malodor of feces, in words ([1]; listed as Sodium perborate): effectively minimizes the malodor of feces"
"CCCCCCCC/C=C\CCCCCCCC(=O)OCCOCC(OCCO)C1OCC(OCCO)C1OCCO (stereo not shown) [Tween 80, polysorbate 80]",,2,
octoxynol [Triton X100],,4,
cocamidopropyl PG-dimonium chloride phosphate [Cola lipid],,1,"effect of added citric acid on antimicrobial activity (animal waste bio-burden; formulation of Table 3 against the same formulation without citric acid): significantly enhanced the antimicrobial activity; antimicrobial activity, comparison in words (animal waste bio-burden; treating animal waste): significantly better antimicrobial activity"
O.O.O.O=BO[O-].[Na+] [sodium perborate trihydrate],significantly reduced malodours,,
